Test results as given in PubChem BioAssay (NCI).
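Briefly, cells in 96-well plates were exposed to five compound concentrations for 48 h, and endpoints were estimated by linear interpolation. GI50 marks 50% less growth. TGI: concentration producing complete growth inhibition.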

Legend:
Experiment in all cases: NCI-60 cell line screen, 48 h
A498 renal = tested on: A498 renal
A549 NSCLC = tested on: A549 NSCLC
ACHN renal = tested on: ACHN renal
BT-549 breast = tested on: BT-549 breast
CAKI-1 renal = tested on: CAKI-1 renal
CCRF-CEM leukemia = tested on: CCRF-CEM leukemia
DU-145 prostate = tested on: DU-145 prostate
EKVX NSCLC = tested on: EKVX NSCLC
HCT-15 colon = tested on: HCT-15 colon
HL-60(TB) leukemia = tested on: HL-60(TB) leukemia
HOP-62 NSCLC = tested on: HOP-62 NSCLC
HT29 colon = tested on: HT29 colon
IGROV1 ovarian = tested on: IGROV1 ovarian
K-562 leukemia = tested on: K-562 leukemia
MDA-MB-231 breast = tested on: MDA-MB-231 breast
MDA-MB-435 = tested on: MDA-MB-435
MOLT-4 leukemia = tested on: MOLT-4 leukemia
NCI-H226 lung = tested on: NCI-H226 lung
NCI-H23 lung = tested on: NCI-H23 lung
NCI/ADR-RES ovarian = tested on: NCI/ADR-RES ovarian
OVCAR-3 ovarian = tested on: OVCAR-3 ovarian
OVCAR-4 ovarian = tested on: OVCAR-4 ovarian
OVCAR-5 ovarian = tested on: OVCAR-5 ovarian
OVCAR-8 ovarian = tested on: OVCAR-8 ovarian
PC-3 prostate = tested on: PC-3 prostate
RPMI-8226 leukemia = tested on: RPMI-8226 leukemia
SF-539 CNS = tested on: SF-539 CNS
SK-MEL-28 melanoma = tested on: SK-MEL-28 melanoma
SK-MEL-5 melanoma = tested on: SK-MEL-5 melanoma
SK-OV-3 ovarian = tested on: SK-OV-3 ovarian
SN12C renal = tested on: SN12C renal
SNB-75 CNS = tested on: SNB-75 CNS
SR leukemia = tested on: SR leukemia
SW-620 colon = tested on: SW-620 colon
T-47D breast = tested on: T-47D breast
TK-10 renal = tested on: TK-10 renal
UACC-257 melanoma = tested on: UACC-257 melanoma
UO-31 renal = tested on: UO-31 renal

COc1cc2nc(Cl)nc(Nc3cccc(C4=Nc5c(N)nc(N)nc5NC(c5ccc(Cl)cc5)C4)c3)c2cc1OC (stereo unspecified)
GI50 (A498 renal): 10.5 µM
TGI (A498 renal): 26.9 µM
GI50 (A549 NSCLC): 3.14 µM
TGI (A549 NSCLC): 16.1 µM
GI50 (ACHN renal): 2.15 µM
TGI (ACHN renal): 4.87 µM
GI50 (BT-549 breast): 7.93 µM
TGI (BT-549 breast): 38 µM
GI50 (CAKI-1 renal): 1.99 µM
TGI (CAKI-1 renal): 4.49 µM
GI50 (CCRF-CEM leukemia): 1.59 µM
TGI (CCRF-CEM leukemia): 5.3 µM
GI50 (DU-145 prostate): 2.07 µM
TGI (DU-145 prostate): 4.84 µM
GI50 (EKVX NSCLC): 2.44 µM
TGI (EKVX NSCLC): 9.17 µM
GI50 (HCT-15 colon): 2.07 µM
TGI (HCT-15 colon): 4.8 µM
GI50 (HL-60(TB) leukemia): 1.79 µM
TGI (HL-60(TB) leukemia): 4.18 µM
GI50 (HOP-62 NSCLC): 5.24 µM
TGI (HOP-62 NSCLC): 32.5 µM
GI50 (HT29 colon): 2.05 µM
TGI (HT29 colon): 4.53 µM
GI50 (IGROV1 ovarian): 2.9 µM
TGI (IGROV1 ovarian): 10.9 µM
GI50 (K-562 leukemia): 1.91 µM
TGI (K-562 leukemia): 4.16 µM
GI50 (MDA-MB-231 breast): 1.63 µM
TGI (MDA-MB-231 breast): 3.29 µM
GI50 (MDA-MB-435): 1.64 µM
TGI (MDA-MB-435): 3.07 µM
GI50 (MOLT-4 leukemia): 1.75 µM
TGI (MOLT-4 leukemia): 5.1 µM
GI50 (NCI-H226 lung): 14.9 µM
TGI (NCI-H226 lung): 50.1 µM
GI50 (NCI-H23 lung): 2.69 µM
TGI (NCI-H23 lung): 8.4 µM
GI50 (NCI/ADR-RES ovarian): 4.16 µM
TGI (NCI/ADR-RES ovarian): 92 µM
GI50 (OVCAR-3 ovarian): 2.04 µM
TGI (OVCAR-3 ovarian): 4.2 µM
GI50 (OVCAR-4 ovarian): 2 µM
TGI (OVCAR-4 ovarian): 4.81 µM
GI50 (OVCAR-5 ovarian): 2.12 µM
TGI (OVCAR-5 ovarian): 5.25 µM
GI50 (OVCAR-8 ovarian): 2.35 µM
TGI (OVCAR-8 ovarian): 5.99 µM
GI50 (PC-3 prostate): 3.97 µM
TGI (PC-3 prostate): 37.9 µM
GI50 (RPMI-8226 leukemia): 1.97 µM
TGI (RPMI-8226 leukemia): 4.84 µM
GI50 (SF-539 CNS): 1.72 µM
TGI (SF-539 CNS): 3.13 µM
GI50 (SK-MEL-28 melanoma): 1.66 µM
TGI (SK-MEL-28 melanoma): 3.1 µM
GI50 (SK-MEL-5 melanoma): 1.68 µM
TGI (SK-MEL-5 melanoma): 3.08 µM
GI50 (SK-OV-3 ovarian): 21.8 µM
TGI (SK-OV-3 ovarian): 48 µM
GI50 (SN12C renal): 2.68 µM
TGI (SN12C renal): 8.1 µM
GI50 (SNB-75 CNS): 2.39 µM
TGI (SNB-75 CNS): 14.3 µM
GI50 (SR leukemia): 1.91 µM
TGI (SR leukemia): 5.33 µM
GI50 (SW-620 colon): 1.85 µM
TGI (SW-620 colon): 3.79 µM
GI50 (T-47D breast): 2.02 µM
TGI (T-47D breast): 4.61 µM
GI50 (TK-10 renal): 2.62 µM
TGI (TK-10 renal): 6.87 µM
GI50 (UACC-257 melanoma): 2.43 µM
TGI (UACC-257 melanoma): 6.22 µM
GI50 (UO-31 renal): 2.48 µM
TGI (UO-31 renal): 8.89 µM
